Read-outs that look alike come from different tables or passages of the source. Peptide text beside a SMILES is read from it.
Experiments:
[1] = molecular target: HLA-C0102 (Homo sapiens, UniProt P10321, A176E/A330V/A35S/A97T/C350S/D114A/D33F/L171W/L180R/L218V/M285V/M309V/M331V/P208H/Q277E/Q291P/R121W/R243W/R30K/S123C/S140Y/S297R/T329A/T363A/V272M/V319A); experiment: Competitive peptide binding assay, CIR-C0102
Description: (§1) Then, competitive peptide binding assays were performed.

[2] = molecular target: HLA-C0304 (Homo sapiens, UniProt P10321, A176E/A330V/A97T/C25G/C350S/D114A/D33Y/E197K/L119I/L127V/L171W/L218V/M285V/M309V/M331V/P208H/Q277E/Q291P/R243W/R45H/S123Y/S140Y/S297R/S48A/T118I/T187L/T329A/T363A/V319A); experiment: Competitive peptide binding assay, CIR-C0304; details: HMy2.CIR-C0304 cells, reference Cy5-[…], class from inhibition at 5 and 15 μM, flow cytometry MFI; read-out: Binding affinity with HLA-C0304
Description: as §1

[3] = molecular target: HLA-C0302 (Homo sapiens, UniProt P10321, A176E/A330V/A97T/C25G/C350S/D114A/D33Y/E197K/L127V/L171W/L218V/M285V/M309V/M331V/P208H/Q277E/Q291P/R243W/R45H/S123Y/S297R/S48A/T118I/T187L/T329A/T363A/V319A); experiment: Competitive peptide binding assay, CIR-C0302; details: HMy2.CIR-C0302 cells, reference Cy5-[…], class from inhibition at 5 and 15 μM, flow cytometry MFI; read-out: Binding affinity with HLA-C0302
Description: as §1

[4] = molecular target: HLA-C0702 (Homo sapiens, UniProt P10321); experiment: Competitive peptide binding assay, CIR-C0702
[5] = molecular target: HLA-C0801 (Homo sapiens, UniProt P10321, A176T/A330V/A97T/C350S/D114A/D138N/D33Y/E201K/E299G/L171W/L218V/M285V/M309V/M331V/P208H/Q277E/Q291P/R59Q/S123Y/S140F/S297R/S48A/T329A/T363A/V319A/V328M); experiment: Competitive peptide binding assay, CIR-C0801; details: HMy2.CIR-C0801 cells, reference Cy5-[…], class from inhibition at 5 and 15 μM, flow cytometry MFI; read-out: Binding affinity with HLA-C0801
Description: as §1

[6] = molecular target: HLA-C0303 (Homo sapiens, UniProt P10321, A176E/A330V/A97T/C25G/C350S/D114A/D33Y/E197K/G115R/L119I/L127V/L171W/L218V/M285V/M309V/M331V/P208H/Q277E/Q291P/R243W/R45H/S123Y/S140Y/S297R/S48A/T118I/T187L/T329A/T363A/V319A); experiment: Competitive peptide binding assay, CIR-C0303; details: HMy2.CIR-C0303 cells, reference Cy5-[…], class from inhibition at 5 and 15 μM, flow cytometry MFI; read-out: Binding affinity with HLA-C0303
Description: as §1

[7] = molecular target: HLA-C1402 (Homo sapiens, UniProt P10321, A176E/A330V/A35S/A97T/C350S/D114A/D33S/L171W/L180R/L218V/M285V/M309V/M331V/P208H/Q277E/Q291P/R121W/R243W/S123F/S297R/S48A/T329A/T363A/V319A); experiment: Competitive peptide binding assay, CIR-C1402; details: HMy2.CIR-C1402 cells, reference Cy5-[…], class from inhibition at 5 and 15 μM, flow cytometry MFI; read-out: Binding affinity with HLA-C1402
Description: as §1

[8] = molecular target: HLA-C0602 (Homo sapiens, UniProt P10321, A176E/A330V/C350S/L171W/L180W/L218V/M285V/M309V/M331V/N104K/P208H/Q277E/Q291P/R121W/S101N/S123Y/S297R/T329A/T363A/V319A/V328M); experiment: Competitive peptide binding assay, CIR-C0602
[9] = molecular target: HLA-B1501 (Homo sapiens, UniProt P01889, A329T/A93T/A95T/C349S/D201E/D98Y/E187L/E204Q/E69M/E70A/K202T/N87E/Q94N/R155S/R180W/S121R/S35A/S48A/V306I/V36M/Y140S/Y91S); experiment: Competitive peptide binding assay, CIR-B1501; details: HMy2.CIR-B1501 cells, reference Cy5-[…], class from inhibition at 5 and 15 μM, flow cytometry MFI; read-out: Binding affinity with HLA-B1501
Description: as §1

[10] = molecular target: HLA-B5801 (Homo sapiens, UniProt P01889, A329T/C349S/D201E/D98Y/E176V/E187L/E204Q/E69T/G107R/I218V/I90N/K202T/L105A/L119I/N104I/N87E/Q89R/Q94S/R106L/R155S/R180L/R86G/S101N/S121R/S35A/S48A/T118I/V127L/V306I/V36M/Y140S/Y91M); experiment: Competitive peptide binding assay, CIR-B5801; details: HMy2.CIR-B5801 cells, reference Cy5-[…], class from inhibition at 5 and 15 μM, flow cytometry MFI; read-out: Binding affinity with HLA-B5801
Description: as §1

[11] = molecular target: HLA-B1301 (Homo sapiens, UniProt P01889, A65T/A93T/A95T/D138N/D201E/D98Y/E176V/E204Q/E69M/E70A/G107R/K202T/L105A/L119I/N104T/N87E/Q94N/R106L/R155S/R169L/R180L/S101N/S121R/S35A/S48T/T118I/V127L/V36M/Y140L/Y91S); experiment: Competitive peptide binding assay, CIR-B1301; details: HMy2.CIR-B1301 cells, reference Cy5-[…], class from inhibition at 5 and 15 μM, flow cytometry MFI; read-out: Binding affinity with HLA-B1301
Description: as §1

[12] = molecular target: HLA-B3501 (Homo sapiens, UniProt P01889, A329T/A93T/A95T/C349S/D201E/D98Y/E176V/E187L/E204Q/E69T/I218V/K202T/L119I/Q94N/R155S/R180L/S121R/S35A/S48A/T118I/V127L/V306I/V36M/Y140S/Y91F); experiment: Competitive peptide binding assay, CIR-B3501; details: HMy2.CIR-B3501 cells, reference Cy5-[…], class from inhibition at 5 and 15 μM, flow cytometry MFI; read-out: Binding affinity with HLA-B3501
Description: as §1

[13] = molecular target: T1, HLA-B0702 (Homo sapiens, UniProt P01889); experiment: Competitive peptide binding assay, CIR-B0702; details: HMy2.CIR-B0702 cells, reference Cy5-[…], class from inhibition at 5 and 15 μM, flow cytometry MFI
T1 construct: expressed in transfected cells; host or cells: HMy2.CIR
Description: as §1

[14] = molecular target: HLA-B4601 (Homo sapiens, UniProt P01889, A329T/A93R/C349S/D201E/E100V/E187L/E204Q/E69M/E70A/I90K/K202T/N87E/R155S/R180W/S121R/S35A/S48A/V306I/V36M/Y140S); experiment: Competitive peptide binding assay, CIR-B4601; details: for IC50: HMy2.CIR-B4601 cells, reference Cy5-[…], class from inhibition at 5 and 15 μM, flow cytometry MFI, read-out: Binding affinity with HLA-B4601
Description: as §1

[15] = molecular target: HLA-B1502 (Homo sapiens, UniProt P01889, A329T/A93T/A95T/C349S/D201E/D98Y/E187L/E204Q/E69M/E70A/H137Y/K202T/L119I/Q94N/R155S/R180L/S121R/S35A/S48A/T118I/V306I/V36M/Y140S/Y91S); experiment: Competitive peptide binding assay, CIR-B1502; details: HMy2.CIR-B1502 cells, reference Cy5-[…], class from inhibition at 5 and 15 μM, flow cytometry MFI; read-out: Binding affinity with HLA-B1502
Description: as §1

[16] = molecular target: HLA-B1302 (Homo sapiens, UniProt P01889, A65T/A93T/A95T/D138N/D201E/D98Y/E176V/E204Q/E69M/E70A/G107R/K202T/L105A/L119W/N104T/N87E/Q94N/R106L/R155S/R169L/R180L/S101N/S121T/S35A/S48T/V127L/V36M/Y140L/Y91S); experiment: Competitive peptide binding assay, CIR-B1302; details: HMy2.CIR-B1302 cells, reference Cy5-MMWYWGPSL, class from inhibition at 5 and 15 μM, flow cytometry MFI; read-out: Binding affinity with HLA-B1302
Description: as §1

[17] = read-out: Inhibition % of Cy5-reference peptide binding

CSCC[C@H](NC(=O)[C@H](CO)NC(=O)[C@H](CCC(N)=O)NC(=O)[C@H](CCC(N)=O)NC(=O)[C@H](CC(C)C)NC(=O)[C@H](CCC(N)=O)NC(=O)[C@H](CCCCN)NC(=O)[C@H](CO)NC(=O)[C@@H](N)Cc1ccccc1)C(=O)O [Epitope M14] (H-FSKQLQQSM-OH; N-terminus and C-terminus assumed)
IC50 ([1]; HMy2.CIR-C0102 cells, reference Cy5-[…], class from inhibition at 5 and 15 μM, flow cytometry MFI, read-out: Binding affinity with HLA-C0102): > 15 µM | IC50 [2]: 5 to 15 µM | IC50 [3]: < 5 µM | IC50 [4]: 5 to 15 µM | IC50 [5]: > 15 µM | IC50 [6]: < 5 µM

CC(C)[C@H](NC(=O)[C@@H](NC(=O)[C@H](Cc1ccccc1)NC(=O)[C@@H]1CCCN1C(=O)[C@@H](NC(=O)CNC(=O)[C@H](CC(=O)O)NC(=O)[C@@H](NC(=O)[C@@H](N)Cc1ccccc1)C(C)C)C(C)C)C(C)C)C(=O)O [Epitope M96] (H-FVDGVPFVV-OH; N-terminus and C-terminus assumed)
IC50 [1]: > 15 µM | inhibition at 5 µM [1, 17]: 3.72% | inhibition at 15 µM [1, 17]: 20.7% | IC50 [4]: > 15 µM | IC50 [7]: 5 to 15 µM | IC50 [5]: < 5 µM | IC50 [6]: > 15 µM

CC[C@H](C)[C@H](NC(=O)[C@H](Cc1ccccc1)NC(=O)[C@@H](N)Cc1ccc(O)cc1)C(=O)N[C@@H](C)C(=O)N[C@@H](CO)C(=O)N[C@@H](Cc1ccccc1)C(=O)N[C@@H](CCCNC(=N)N)C(=O)N[C@@H](CC(C)C)C(=O)N[C@@H](Cc1ccccc1)C(=O)O [Epitope M107] (H-YFIASFRLF-OH; N-terminus and C-terminus assumed)
IC50 [4]: > 15 µM | IC50 [7]: < 5 µM | IC50 [5]: > 15 µM | IC50 [6]: 5 to 15 µM | IC50 [8]: > 15 µM

CSCC[C@H](NC(=O)[C@H](CO)NC(=O)[C@H](CCC(N)=O)NC(=O)[C@H](CCC(N)=O)NC(=O)[C@H](CC(C)C)NC(=O)[C@H](CCC(N)=O)NC(=O)[C@H](CCCCN)NC(=O)[C@H](CO)NC(=O)[C@@H](N)Cc1ccccc1)C(=O)O [Epitope Y135] (H-FSKQLQQSM-OH; N-terminus and C-terminus assumed)
IC50 [9]: < 5 µM | IC50 [10]: 5 to 15 µM | IC50 [11]: > 15 µM | IC50 [12]: > 15 µM | IC50 [13]: 5 to 15 µM | IC50 [14]: < 5 µM

CC(C)C[C@H](NC(=O)[C@H](CC(=O)O)NC(=O)[C@H](C)NC(=O)[C@H](C)NC(=O)[C@@H]1CCCN1C(=O)[C@@H](N)CC(C)C)C(=O)N[C@@H](CC(=O)O)C(=O)N[C@@H](CC(=O)O)C(=O)N[C@@H](Cc1ccccc1)C(=O)O [Epitope Y180] (H-LPAADLDDF-OH; N-terminus and C-terminus assumed)
IC50 [9]: 5 to 15 µM | IC50 [10]: > 15 µM | IC50 [11]: > 15 µM | IC50 [13]: > 15 µM | IC50 [14]: > 15 µM | IC50 [15]: > 15 µM

CSCC[C@H](NC(=O)[C@H](C)NC(=O)[C@@H](N)Cc1ccccc1)C(=O)N[C@@H](CCC(N)=O)C(=O)N[C@@H](CCSC)C(=O)N[C@@H](C)C(=O)N[C@@H](Cc1ccc(O)cc1)C(=O)N[C@@H](CCCNC(=N)N)C(=O)N[C@@H](Cc1ccccc1)C(=O)O [Epitope Y189]
IC50 [9]: > 15 µM | IC50 [10]: > 15 µM | IC50 [11]: 5 to 15 µM | IC50 [12]: 5 to 15 µM | IC50 [13]: < 5 µM | IC50 [14]: < 5 µM | inhibition at 5 µM ([14]; read-out: Inhibition % of Cy5-reference peptide binding, CIR-B4601, 5μM peptide): 74.8% | inhibition at 15 µM ([14]; read-out: Inhibition % of Cy5-reference peptide binding, CIR-B4601, 15μM peptide): 92.9% | IC50 [15]: > 15 µM

CC(C)C[C@H](NC(=O)[C@H](CC(C)C)NC(=O)[C@@H](NC(=O)[C@@H](NC(=O)[C@@H](NC(=O)[C@H](CCC(N)=O)NC(=O)[C@H](CCC(N)=O)NC(=O)[C@H](CCCCN)NC(=O)[C@@H](N)CCCCN)[C@@H](C)O)C(C)C)[C@@H](C)O)C(=O)O [Epitope Y196] (H-KKQQTVTLL-OH; N-terminus and C-terminus assumed)
IC50 [9]: > 15 µM | IC50 [16]: 5 to 15 µM | IC50 [10]: > 15 µM | IC50 [11]: > 15 µM | IC50 [12]: > 15 µM | IC50 [13]: > 15 µM | IC50 [14]: < 5 µM
